Results as given in EP0103381B1, “Substituted anthra(1,9-cd)pyrazol-6(2H)-ones” (WARNER-LAMBERT COMPANY, priority 1982, dated 1984).

Legend:
Test in all cases: agar plate paper-disc inhibition zone screening
Type in all cases: cell-based
Streptococcus faecalis = conditions: Enterococcus faecalis, read-out: Inhibition Zone Diameter mm (Dose mg/ml) S. Faecalis; for zone of inhibition at 1000 µg/mL: Dose 1.0 mg/ml; for zone of inhibition at 3000 µg/mL: Dose 3.0 mg/ml
Method: (§1) The bacterial and yeast isolates are maintained in agar slants or in liquid media, hereby designated as inoculum media. The cultures are transferred at regular intervals in such media. (See Table for the corresponding inoculum media of each culture.) The organisms are generally transferred on to agar slants or liquid inoculum media and incubated overnight (18-20 hours): 37°C for the bacterial isolates and 28°C for the fungal cultures.
(§2) The microbial cells from the overnight agar slants are then scraped off and suspended in saline solution (0.85% NaCI). The microbial concentrations are adjusted to a light transmittancy of 20-35%, Junior Coleman Spectrophotometer (555 M). For the organisms that are maintained in liquid media, an aliquot of the culture suspension is simply diluted with saline to 20-35% light transmittancy.
(§3) The above microbial suspension serve as inocula for the assay plates. Thus, 0.16-10 ml (see Table for exact amount) are used to inoculate 100 ml of the molten-agar assay medium.
(§4) Stainless steel frames, 12.3 x 25.3 cm (ID) and glass plates, 15.3 x 31.7 cm are used to make the test trays. The frames are attached to the plates with tape at each end and the inner edges sealed with 2% agar. Twenty five ml of inoculated assay medium is spread evenly on each tray and allowed to solidify. The trays are covered, inverted, and refrigerated until used.
(§5) The compounds or samples to be tested are dissolved in suitable solvents, e.g., alcohols, dimethylsulfoxide, or N,N-dimethylformamide. The samples are generally dissolved so that the final concentration of the solvent is <10%.^* The compounds are tested at different concentrations: 3,000; 1,000; 500; 100; and 10 mcg/ml. Paper discs (12.7 mm diameter) are placed on the agar trays with forceps, then 0.08 ml of the dissolved compound is pipetted onto each disc using a 0.2 ml pipette.
(§6) The disked agar trays are incubated overnight (18-20 hours) at 37°C for the bacterial cultures and 28°C for the yeasts. The Penicillium avellaneium tray is incubated for at least […] since it is a slower- growing organism.
(§7) Active compounds show a zone of inhibition around the disc. The diameter of the zone is measured in mm. The zone diameter of active compounds ranges from a minimum of 13.5 mm to as high as 60 mm. The size of the zone diameter generally reflects the activity of the compound: the larger the zone the greater the activity.

Bacillus subtilis = conditions: read-out: Inhibition Zone Diameter mm (Dose mg/ml) B. Subtilis; for zone of inhibition at 500 µg/mL: Dose 0.5 mg/ml; for zone of inhibition at 3000 µg/mL: Dose 3.0 mg/ml; for zone of inhibition at 1000 µg/mL: Dose 1.0 mg/ml
Method: as §1, §2, §3, §4, §5, §6, §7

Escherichia coli = conditions: read-out: Inhibition Zone Diameter mm (Dose mg/ml) E. Coli; for zone of inhibition at 500 µg/mL: Dose 0.5 mg/ml; for zone of inhibition at 3000 µg/mL: Dose 3.0 mg/ml; for zone of inhibition at 1000 µg/mL: Dose 1.0 mg/ml
Method: as §1, §2, §3, §4, §5, §6, §7

Aerobacter aerogenes = conditions: Klebsiella aerogenes, read-out: Inhibition Zone Diameter mm (Dose mg/ml) A. Aerogenes; for zone of inhibition at 3000 µg/mL: Dose 3.0 mg/ml; for zone of inhibition at 500 µg/mL: Dose 0.5 mg/ml
Method: as §1, §2, §3, §4, §5, §6, §7

Penicillium avellaneum = conditions: Hamigera avellanea, read-out: Inhibition Zone Diameter mm (Dose mg/ml) P. Avellaneum; for zone of inhibition at 3000 µg/mL: Dose 3.0 mg/ml; for zone of inhibition at 500 µg/mL: Dose 0.5 mg/ml
Method: The Penicillium avellaneum is grown for six days, at 28°C, on an agar medium. This is to allow sporulation of the culture. The organism is then harvested by scraping off the cells from the agar surface (mycelia and spores) and suspending them in saline solution containing 0.05% Tween 80.
The suspension is adjusted to a light transmittancy of 20%. One ml of this suspension is used to inoculate 100 ml of the molten-agar assay medium.
as §4, §5, §6, §7

SMILES	zone of inhibition at 3000 µg/mL (Penicillium avellaneum)	zone of inhibition at 3000 µg/mL (Streptococcus faecalis)	zone of inhibition at 3000 µg/mL (Bacillus subtilis)	zone of inhibition at 3000 µg/mL (Escherichia coli)	zone of inhibition at 3000 µg/mL (Aerobacter aerogenes)	zone of inhibition at 1000 µg/mL (Bacillus subtilis)	further results
O=C1c2ccccc2-c2nn(CCNCCO)c3ccc(NCCO)c1c23 [Example 24, 5-[(2-Hydroxyethyl)amino]-2-[2-[(2-hydroxyethyl)amino]ethyl]anthra[1,9-cd]pyrazol-6(2H)-one]	0 mm	–	–	–	–	–	zone of inhibition at 1000 µg/mL (Streptococcus faecalis): 14 mm; zone of inhibition at 500 µg/mL (Bacillus subtilis): 18 mm; zone of inhibition at 500 µg/mL (Escherichia coli): 15 mm; zone of inhibition at 1000 µg/mL (Aerobacter aerogenes; Dose 1.0 mg/ml): 14 mm
CN(C)CCNCCn1nc2c3c(c(Cl)ccc31)C(=O)c1c(O)ccc(O)c1-2 [7,10-(OH)2; Cl*; (CH2)2NH(CH2)2NMe2, 5-Chloro-2-[2-[[2-(dimethylamino)ethyl]amino]ethyl]-7,10-dihydroxyanthra[1,9-cd]pyrazol-6(2H)-one]	0 mm	0 mm	14 mm	0 mm	0 mm	–	–
CCN(CC)CC(O)Cn1nc2c3c(c(Cl)ccc31)C(=O)c1c(O)ccc(O)c1-2 (stereo not shown) [7,10-(OH)2; Cl*; CH2CHOHCH2NEt2, 5-Chloro-2-[3-(diethylamino)-2-hydroxypropyl]-7,10-dihydroxyanthra[1,9-cd]pyrazol-6(2H)-one]	14 mm	14 mm	14 mm	–	0 mm	–	zone of inhibition at 500 µg/mL (Escherichia coli): 14 mm
CCN(CC)CCCCNc1ccc2c3c(nn2CCO)-c2ccccc2C(=O)c13 [Example 16, 5-[[4-(Diethylamino)butyl]amino]-2-(2-hydroxyethyl)anthra[1,9-cd]pyrazol-6(2H)-one]	0 mm	0 mm	–	0 mm	0 mm	25 mm	–
Cn1nc2c3c(c(NCCN)ccc31)C(=O)c1c(O)ccc(O)c1-2 [Example 40, 5-[(2-Aminoethyl)amino]-7,10-dihydroxy-2-methylanthra[1,9-cd]pyrazol-6(2H)-one]	0 mm	14 mm	0 mm	14 mm	14 mm	–	–
NCCNc1ccc2c3c(nn2CCN)-c2c(O)ccc(O)c2C(=O)c13 [Example 72, 2-(2-Aminoethyl)-5-[(2-aminoethyl)amino]-7,10-dihydroxyanthra[1,9-cd]pyrazol-6(2H)-one]	0 mm	0 mm	0 mm	0 mm	14 mm	–	–
O=C1c2c(NCCNCCO)cccc2-c2nn(CCNCCO)c3cccc1c23 [Example 81, 2-[2-[(2-Hydroxyethyl)amino]lethyl]-7-[[2-[(2-hydroxyethyl)amino]ethyl]amino]anthra[1,9-cd]pyrazol-6(2H)-one]	0 mm	0 mm	–	–	–	–	zone of inhibition at 500 µg/mL (Bacillus subtilis): 16 mm; zone of inhibition at 1000 µg/mL (Escherichia coli): 20 mm; zone of inhibition at 500 µg/mL (Aerobacter aerogenes): 17 mm
CN(CCO)CCn1nc2c3c(c(Cl)ccc31)C(=O)c1c(O)ccc(O)c1-2 [7,10-(OH)2; Cl*; Me | (CH2)2N (CH2)2OH, 5-Chloro-7,10-dihydroxy-2-[2-[(2-hydroxyethyl)methylamino]ethyl]anthra[1,9-cd]pyrazol-6(2H)-one]	0 mm	0 mm	0 mm	14 mm	0 mm	–	–
NCCn1nc2c3c(c(Cl)ccc31)C(=O)c1ccccc1-2 [H; Cl*; (CH2)2NH2, 2-(2-Aminoethyl)-5-chloroanthra[1,9-cd]pyrazol-6(2H)-one]	16 mm	0 mm	14 mm	–	–	–	zone of inhibition at 100 µg/mL (Escherichia coli; Dose 0.1 mg/ml): 16 mm; zone of inhibition at 100 µg/mL (Aerobacter aerogenes; Dose 0.1 mg/ml): 25 mm
CCN(CC)CCCCCCCNc1ccc2c3c(nn2CCO)-c2ccccc2C(=O)c13 [Example 17, 5-[[7-(Diethylamino)heptyl]amino]-2-(2-hydroxyethyl)anthra[1,9-cd]pyrazol-6(2H)-one]	0 mm	0 mm	–	0 mm	0 mm	20 mm	–
CCN(CC)CCn1nc2c3c(c(Cl)ccc31)C(=O)c1c(O)ccc(O)c1-2 [Example 49, 5-Chloro-2-[2-(diethylamino)ethyl]-7,1 0-dihydroxyanthra[1,9-cd] pyrazol-6(2H)-one]	16 mm	0 mm	–	0 mm	0 mm	14 mm	–
CN(C)CCn1nc2c3c(c(Cl)ccc31)C(=O)c1c(O)ccc(O)c1-2 [7,10-(OH)2; Cl*; (CH2)2NMe2, 5-Chloro-2-[2-(dimethylamino)ethyl]-7,10-dihydroxyanthra[1,9-cd]pyrazol-6(2H)-one]	–	0 mm	0 mm	–	15 mm	–	zone of inhibition at 1000 µg/mL (Escherichia coli): 14 mm; zone of inhibition at 500 µg/mL (Penicillium avellaneum): 15 mm
CCCCCCNc1ccc2c3c(nn2CCN(CC)CC)-c2ccccc2C(=O)c13 [Example 8, 2-[2-(Diethylamino)ethyl]-5-(hexylamino)anthra[1,9-cd]pyrazol-6(2H)-one]	16 mm	0 mm	–	0 mm	0 mm	16 mm	–
CCN(CC)CC(O)Cn1nc2c3c(c(Cl)ccc31)C(=O)c1ccccc1-2 (stereo not shown) [H; Cl*; CH2CHOHCH2NEt2]	–	–	–	–	17 mm	14 mm	zone of inhibition at 1000 µg/mL (Streptococcus faecalis): 15 mm; zone of inhibition at 500 µg/mL (Escherichia coli): 14 mm; zone of inhibition at 1000 µg/mL (Penicillium avellaneum; Dose 1.0 mg/ml): 16 mm
O=C1c2c(O)ccc(O)c2-c2nn(CCNCCO)c3ccc(NCCN4CCOCC4)c1c23 [Example 61, 7,10-Dihydroxy-2-[2-[(2-hydroxyethyl)amino]ethyl]-5-[[2-(4-morpholinyl)ethyl]amino]anthra[1,9-cd]pyrazol-6(2H)-one]	0 mm	0 mm	–	14 mm	0 mm	15 mm	–
O=C1c2ccccc2-c2nn(CCO)c3ccc(NCCN4CCOCC4)c1c23 [Example 14, 2-(2-Hydroxyethyl)-5-[[2-(4-morpholinyl)ethyl]amino][1,9-cd]pyrazol-6(2H)-one]	0 mm	0 mm	–	16 mm	0 mm	16 mm	–
CCN(CC)CCn1nc2c3c(c(Cl)ccc31)C(=O)c1ccccc1-2 [H; Cl*; (CH2)2NEt2, 5-Chloro-2-[2-(diethylamino)ethyl]anthra[1,9-cd]pyrazol-6(2H)-one]	–	–	–	–	–	–	zone of inhibition at 1000 µg/mL (Streptococcus faecalis): 16 mm; zone of inhibition at 100 µg/mL (Bacillus subtilis; Dose 0.1 mg/ml): 16 mm; zone of inhibition at 500 µg/mL (Escherichia coli): 14 mm; zone of inhibition at 500 µg/mL (Aerobacter aerogenes): 14 mm; zone of inhibition at 500 µg/mL (Penicillium avellaneum): 16 mm
